Results: DBAASP
Values after ≈ are worked out from the molar mass of the structure shown.

Legend:
Assay in all cases: ≥ marks a high value that may be exact or a test limit, other limits are often not marked, values filed in µg/mL are converted to µM
[1] = tested on: Bacillus subtilis ATCC 6633
[2] = tested on: Escherichia coli ATCC 15597
[3] = tested on: Klebsiella pneumoniae NCTC 5055
[4] = tested on: Micrococcus luteus ATCC 49732
[5] = tested on: Pseudomonas aeruginosa ATCC 27853
[6] = tested on: Salmonella typhimurium DA6192
[7] = tested on: Staphylococcus aureus ATCC 6538
[8] = tested on: Acinetobacter baumannii ATCC 19606
[9] = tested on: Candida albicans ATCC 90028
[10] = tested on: Cryptococcus neoformans ATCC 208821
[11] = tested on: Escherichia coli ATCC 25922
[12] = tested on: Klebsiella pneumoniae ATCC 700603
[13] = tested on: Staphylococcus aureus ATCC 43300
[14] = tested on: Staphylococcus aureus SH1000
[15] = tested on: Staphylococcus aureus FDA 209P
[16] = tested on: Staphylococcus aureus ATCC 12600
[17] = tested on: Streptococcus mutans ATCC 25175
[18] = tested on: Candida albicans ATCC 10231
Escherichia coli D31 = tested on: Escherichia coli D31
[19] = tested on: Pseudomonas aeruginosa ATCC 15442
[20] = tested on: Pseudomonas aeruginosa PAO1
[21] = tested on: Staphylococcus aureus ATCC 25923
Staphylococcus aureus MR = tested on: Staphylococcus aureus MR
Escherichia coli O111 = tested on: Escherichia coli O111
Escherichia coli = tested on: Escherichia coli
[22] = tested on: Salmonella enterica subsp. enterica serovar Enteritidis
Salmonella sp. = tested on: Salmonella sp.
[23] = tested on: Staphylococcus aureus ATCC 29213
Yersinia enterocolitica = tested on: Yersinia enterocolitica

`CC[C@H](C)[C@H](N)C(=O)N[C@H](C(=O)N[C@@H](CCCCN)C(=O)N[C@H](C(=O)N[C@H](C(=O)N[C@H](C(=O)N[C@@H](CCCCN)C(=O)N[C@@H](CC(C)C)C(=O)N[C@@H](CC(C)C)C(=O)N[C@@H](CC(N)=O)C(=O)N[C@@H](CCCN=C(N)N)C(=O)N[C@@H](CC(C)C)C(=O)N[C@H](C(=O)N[C@@H](CCCCN)C(=O)N[C@H](C(=O)N[C@@H](CC(C)C)C(=O)N[C@@H](CO)C(=O)N[C@@H](CCCCN)C(=O)O)[C@@H](C)CC)[C@@H](C)O)[C@@H](C)O)[C@@H](C)CC)C(C)C)[C@@H](C)O` [ITKVITKLLNRLTKILSK] gave an MIC [1] of 15 µM (≈ 31.2 µg/mL), an MIC [2] of 3.1 µM (≈ 6.46 µg/mL) and an MIC [3] of at least 50 µM. For the same compound, the MIC [4] was 1.5 µM (≈ 3.12 µg/mL), the MIC [5] was 25 µM (≈ 52.1 µg/mL) and the MIC [6] was at least 40 µM. The MIC [7] was 15 µM (≈ 31.2 µg/mL).

`CC[C@H](C)[C@H](NC(=O)[C@H](CC(=O)O)NC(=O)[C@H](Cc1ccccc1)NC(=O)[C@H](CC(C)C)NC(=O)CN)C(=O)N[C@H](C(=O)N[C@@H](CCCCN)C(=O)N[C@@H](CCCCN)C(=O)N[C@H](C(=O)N[C@H](C(=O)NCC(=O)N[C@@H](C)C(=O)N[C@@H](CC(C)C)C(=O)N[C@@H](CCCCN)C(N)=O)C(C)C)C(C)C)C(C)C` [GLFDIVKKVVGALK] was tested, and the MIC [8] was over 22 µM, the MIC [9] was 22 µM (≈ 32.7 µg/mL) and the MIC [10] was 22 µM (≈ 32.7 µg/mL). It also gave an MIC [11] of over 22 µM, an MIC [12] of over 22 µM and an MIC [5] of over 22 µM. For the same compound, the MIC [13] was over 22 µM and the MIC [14] was at least 33 µM.

Compound `CC[C@H](C)[C@H](NC(=O)CN)C(=O)N[C@@H](Cc1ccccc1)C(=O)N[C@H](C(=O)N[C@@H](CC(C)C)C(=O)N[C@@H](Cc1ccccc1)C(=O)N[C@@H](CCCCN)C(=O)NCC(=O)N[C@@H](C)C(=O)N[C@@H](C)C(=O)N[C@@H](CCCCN)C(=O)N[C@@H](CC(C)C)C(=O)N[C@@H](CC(C)C)C(=O)NCC(=O)N[C@@H](CCCCN)C(=O)N[C@H](C(=O)N[C@@H](CC(C)C)C(=O)N[C@@H](C)C(=O)N[C@@H](CCCCN)C(=O)N[C@@H](CCC(=O)O)C(=O)N[C@@H](C)C(=O)NCC(=O)N[C@@H](CCCCN)C(=O)N[C@H](C(=O)NCC(=O)N[C@@H](CC(C)C)C(=O)N[C@@H](CCC(=O)O)C(=O)N[C@@H](CC(C)C)C(=O)N[C@@H](CCSC)C(=O)N[C@@H](C)C(=O)N[C@H]1CSSC[C@@H](C(=O)O)NC(=O)[C@H](CCC(N)=O)NC(=O)[C@H](CC(N)=O)NC(=O)[C@H]([C@@H](C)O)NC(=O)[C@H](C(C)C)NC(=O)[C@H](CCCCN)NC1=O)[C@@H](C)O)[C@@H](C)O)[C@@H](C)O` [GIFTLFKGAAKLLGKTLAKEAGKTGLELMACKVTNQC] has an MIC [11] of 2.8 µM (≈ 10.8 µg/mL) and an MIC [15] of 4.4 µM (≈ 17 µg/mL).

`CC[C@H](C)[C@H](NC(=O)[C@H](C)NC(=O)CNC(=O)[C@H](Cc1ccccc1)NC(=O)[C@H](CC(C)C)NC(=O)CN)C(=O)N[C@@H](C)C(=O)NCC(=O)N[C@@H](Cc1ccccc1)C(=O)N[C@H](C(=O)N[C@@H](CCCCN)C(=O)N[C@@H](CC(N)=O)C(=O)NCC(=O)N[C@@H](Cc1c[nH]c2ccccc12)C(=O)N[C@@H](CCCCN)C(=O)NCC(=O)N[C@@H](CCSC)C(=O)N[C@H](C(=O)N[C@@H](CCCCN)C(=O)NCC(N)=O)[C@@H](C)CC)[C@@H](C)CC` [GLFGAIAGFIKNGWKGMIKG] showed an MIC [11] of 3.8 µM (≈ 7.85 µg/mL), an MIC [5] of 7.6 µM (≈ 15.7 µg/mL) and an MIC [16] of 3.8 µM (≈ 7.85 µg/mL). It also gave an MIC [17] of 1.9 µM (≈ 3.92 µg/mL).

Work on `CC[C@H](C)[C@H](NC(=O)[C@H](CCCCN)NC(=O)[C@H](CCC(N)=O)NC(=O)[C@H](CC(C)C)NC(=O)[C@@H](N)Cc1ccccc1)C(=O)N[C@H](C(=O)NCC(=O)N[C@@H](C)C(=O)N[C@@H](CC(C)C)C(=O)NCC(=O)N[C@@H](Cc1cnc[nH]1)C(=O)N[C@@H](CC(C)C)C(=O)N[C@@H](Cc1ccccc1)C(N)=O)[C@@H](C)CC` [FLQKIIGALGHLF] yielded an MIC [1] of at least 100 µM, an MIC [18] of over 100 µM and an MIC [11] of 12.5 µM (≈ 18.2 µg/mL). For the same compound, the MIC (Escherichia coli D31) was at least 100 µM, the MIC [19] was 6.2 µM (≈ 9.03 µg/mL) and the MIC [20] was over 100 µM. The MIC [21] was 3.1 µM (≈ 4.51 µg/mL), the MIC [13] was 6.2 µM (≈ 9.03 µg/mL) and the MIC (Staphylococcus aureus MR) was 12.5 µM (≈ 18.2 µg/mL). For the same compound, the MIC [17] was 6.2 µM (≈ 9.03 µg/mL).

`CC[C@H](C)[C@H](NC(=O)[C@H](CC(=O)O)NC(=O)[C@H](Cc1ccccc1)NC(=O)[C@H](CC(C)C)NC(=O)CN)C(=O)N[C@H](C(=O)N[C@@H](CCCCN)C(=O)N[C@@H](CCCCN)C(=O)N[C@H](C(=O)N[C@@H](CC(C)C)C(=O)N[C@@H](CCCCN)C(=O)N[C@@H](CC(C)C)C(=O)N[C@@H](CC(C)C)C(=O)N[C@@H](CCCCN)C(N)=O)C(C)C)C(C)C` [GLFDIVKKVLKLLK] gave an MIC [8] of over 20 µM, an MIC [9] of 20 µM (≈ 32.3 µg/mL) and an MIC [10] of 20 µM (≈ 32.3 µg/mL). It also gave an MIC [11] of over 20 µM, an MIC [12] of over 20 µM and an MIC [5] of over 20 µM. For the same compound, the MIC [13] was over 20 µM and the MIC [14] was 3.3 µM (≈ 5.32 µg/mL).

`CC[C@H](C)[C@H](NC(=O)CNC(=O)[C@H](CCC(=O)O)NC(=O)[C@H](Cc1c[nH]c2ccccc12)NC(=O)[C@@H](NC(=O)[C@@H](N)CO)[C@@H](C)CC)C(=O)N[C@@H](CCCCN)C(=O)N[C@@H](CC(N)=O)C(=O)N[C@@H](C)C(=O)NCC(=O)N[C@@H](CCCCN)C(=O)NCC(=O)N[C@@H](Cc1ccccc1)C(=O)N[C@@H](CC(C)C)C(=O)N[C@H](C(=O)N[C@@H](CO)C(=O)N[C@H](C(=O)N[C@@H](CC(C)C)C(=O)N[C@@H](CC(=O)O)C(=O)N[C@@H](CCCCN)C(=O)N[C@H](C(=O)N[C@@H](CCCN=C(N)N)C(=O)N[C@H]1CSSC[C@@H](C(=O)N[C@@H](CC(N)=O)C(=O)N2CCC[C@H]2C(=O)O)NC(=O)CNC(=O)CNC(=O)[C@H](C)NC(=O)[C@H](C(C)C)NC(=O)[C@H](CCCCN)NC1=O)C(C)C)[C@@H](C)CC)C(C)C` [SIWEGIKNAGKGFLVSILDKVRCKVAGGCNP] gave an MIC [1] of 19.6 µM (≈ 64 µg/mL), an MIC [11] of 3.01 µM (≈ 9.79 µg/mL) and an MIC (Escherichia coli O111) of 6.01 µM (≈ 19.6 µg/mL). For the same compound, the MIC [15] was 3.01 µM (≈ 9.79 µg/mL).

Work on `CC[C@H](C)[C@H](NC(=O)[C@H](CCC(N)=O)NC(=O)[C@@H](N)CCCN=C(N)N)C(=O)N[C@H](C(=O)N[C@@H](CCCN=C(N)N)C(=O)N[C@@H](CCCN=C(N)N)C(=O)N[C@@H](CCSC)C(=O)N[C@@H](CCC(N)=O)C(=O)N[C@@H](CCCN=C(N)N)C(N)=O)[C@@H](C)CC` [RQIIRRMQR] yielded an MIC [11] of over 39.8 µM, an MIC (Escherichia coli) of over 39.8 µM and an MIC [22] of at least 39.8 µM. The MIC (Salmonella sp.) was at least 39.8 µM, the MIC [23] was over 39.8 µM and the MIC [13] was over 39.8 µM. For the same compound, the MIC (Yersinia enterocolitica) was at least 39.8 µM.

Work on `CC[C@H](C)[C@H](N)C(=O)N[C@@H](CCC(N)=O)C(=O)N[C@@H](CCCCN)C(=O)N[C@H](C(=O)N[C@H](C(=O)N[C@@H](CCC(N)=O)C(=O)N[C@@H](CCCCN)C(=O)N[C@@H](CC(C)C)C(=O)N[C@@H](CC(C)C)C(=O)N[C@@H](CC(N)=O)C(=O)N[C@@H](CCCN=C(N)N)C(=O)N[C@@H](CC(C)C)C(=O)N[C@@H](CCC(N)=O)C(=O)N[C@@H](CCCCN)C(=O)N[C@H](C(=O)N[C@@H](CC(C)C)C(=O)N[C@@H](CCC(N)=O)C(=O)N[C@@H](CCCCN)C(=O)O)[C@@H](C)CC)[C@@H](C)CC)C(C)C` [IQKVIQKLLNRLQKILQK] yielded an MIC [1] of 4.2 µM (≈ 9.26 µg/mL), an MIC [2] of 3.1 µM (≈ 6.83 µg/mL) and an MIC [3] of 12.5 µM (≈ 27.6 µg/mL). The MIC [4] was 1.05 µM (≈ 2.32 µg/mL), the MIC [5] was 3.1 µM (≈ 6.83 µg/mL) and the MIC [6] was 20.8 µM (≈ 45.9 µg/mL). It also gave an MIC [7] of over 50 µM.

`CC[C@H](C)[C@H](NC(=O)[C@H](CCCCN)NC(=O)[C@@H]1CCCN1C(=O)[C@H](CCC(N)=O)NC(=O)[C@@H](N)CCCN=C(N)N)C(=O)N1CCC[C@H]1C(=O)N[C@@H](CCCN=C(N)N)C(=O)N[C@@H](CCSC)C(=O)N1CCC[C@H]1C(=O)N[C@@H](Cc1c[nH]c2ccccc12)C(=O)N[C@@H](CCCN=C(N)N)C(N)=O` [RQPKIPRMPWR] showed an MIC [11] of over 34.1 µM, an MIC (Escherichia coli) of over 34.1 µM and an MIC [22] of at least 34.1 µM. It also gave an MIC (Salmonella sp.) of at least 34.1 µM, an MIC [23] of over 34.1 µM and an MIC [13] of over 34.1 µM. The MIC (Yersinia enterocolitica) was at least 34.1 µM.
